Among the data in patent US11325938B2, “CD73 inhibitors” (ORIC Pharmaceuticals, Inc., priority 2018, dated 2022) are IC50 values, retold here.

The test concerns the target CD73 (Homo sapiens (Human), UniProt P21589). Briefly: Biochemical assay: inhibition of CD73 activity (AMP hydrolysis, Malachite Green readout). The settings on record: CD73 0.3208 nM, AMP 15 μM, 25 mM Tris-HCl pH 7.4, RT, absorbance 620 nm. Summed up:
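Phosphate from AMP hydrolysis (15 μM AMP, 10 min, RT) was detected by Malachite Green absorbance to give IC50s. Enzyme at 320 pM was first exposed 15 min to compounds, dosed from 100 μM in ½-log steps, in Tris pH 7.4 buffer with MgCl2, Brij-35 and BSA.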

Chain of CD73 (P21589 27-574): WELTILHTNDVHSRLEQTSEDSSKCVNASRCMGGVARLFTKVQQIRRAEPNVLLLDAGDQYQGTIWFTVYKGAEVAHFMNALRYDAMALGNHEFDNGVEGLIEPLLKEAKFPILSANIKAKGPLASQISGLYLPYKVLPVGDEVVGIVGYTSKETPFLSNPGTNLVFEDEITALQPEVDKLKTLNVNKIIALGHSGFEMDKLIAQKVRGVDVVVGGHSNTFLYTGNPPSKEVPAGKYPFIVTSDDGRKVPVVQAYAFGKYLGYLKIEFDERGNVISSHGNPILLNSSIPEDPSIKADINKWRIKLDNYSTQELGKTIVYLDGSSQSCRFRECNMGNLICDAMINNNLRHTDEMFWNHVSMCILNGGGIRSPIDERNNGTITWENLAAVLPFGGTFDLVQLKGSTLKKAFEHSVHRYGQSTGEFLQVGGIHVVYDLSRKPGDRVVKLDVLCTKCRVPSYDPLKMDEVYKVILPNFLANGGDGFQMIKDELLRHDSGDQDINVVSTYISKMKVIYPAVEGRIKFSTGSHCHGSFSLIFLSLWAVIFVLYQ

`COCC(CC(=O)O)(OC[C@H]1O[C@@H](n2ncc3c(NC4CCCC4)nc(Cl)nc32)[C@H](O)[C@@H]1O)P(=O)(O)O` (mixture of isomers) [Example 210, rac-3-(((2R,3S,4R,5R)-5-(6-chloro-4-(cyclopentyalmino)-1H-pyrazolo[3,4-d]pyrimidin-1-yl)-3,4-dihydroxytetrahydrofuran-2-yl)methoxy)-4-methoxy-3-phosphonobutanoic acid]: the IC50 was at most 100 nM.
Then `CC1(Nc2nc(Cl)nc3c2cnn3[C@@H]2O[C@H](CO[C@](C)(CO)P(=O)(O)O)[C@@H](O)[C@H]2O)CCCC1` [Example 106, ((S)-2-(((2R,3S,4R,5R)-5-(6-chloro-4-((1-methylcyclopentyl)amino)-1H-pyrazolo[3,4-d]pyrimidin-1-yl)-3,4-dihydroxytetrahydrofuran-2-yl)methoxy)-1-hydroxypropan-2-yl)phosphonic acid], with at most 100 nM; and `C[C@@](CO)(OC[C@H]1O[C@@H](n2ncc3c(NC4CCC4)nc(Cl)nc32)[C@H](O)[C@@H]1O)P(=O)(O)O` [Example 101, ((R)-2-(((2R,3S,4R,5R)-5-(6-chloro-4-(cyclobutylamino)-1H-pyrazolo[3,4-d]pyrimidin-1-yl)-3,4-dihydroxytetrahydrofuran-2-yl)methoxy)-1-hydroxypropan-2-yl)phosphonic acid], with at most 100 nM; and `CC(CO)(OC[C@H]1O[C@@H](n2ncc3c(N[C@@H]4CCc5ccccc54)nc(Cl)nc32)[C@H](O)[C@@H]1O)P(=O)(O)O` (stereo partly drawn) [Example 61, (2-(((2R,3S,4R,5R)-5-(6-chloro-4-(((R)-2,3-dihydro-1H-inden-1-yl)amino)-1H-pyrazolo[3,4-d]pyrimidin-1-yl)-3,4-dihydroxytetrahydrofuran-2-yl)methoxy)-1-hydroxypropan-2-yl)phosphonic acid], with at most 100 nM.
`CN(C)CC(C)(OC[C@H]1O[C@@H](n2ncc3c(NC4CCCC4)nc(Cl)nc32)[C@H](O)[C@@H]1O)P(=O)(O)O` (stereo partly drawn) [Example 81, (2-(((2R,3S,4R,5R)-5-(6-chloro-4-(cyclopentylamino)-1H-pyrazolo[3,4-d]pyrimidin-1-yl)-3,4-dihydroxytetrahydrofuran-2-yl)methoxy)-1-(dimethylamino)propan-2-yl)phosphonic acid] came in with an IC50 of over 1000 nM.
The value for `CC(CO)(OC[C@H]1O[C@@H](n2ccc3c(NC4CCCC4)nc(Cl)nc32)[C@H](O)[C@@H]1O)P(=O)(O)O` (stereo partly drawn) [Example 91, (2-(((2R,3S,4R,5R)-5-(2-Chloro-4-(cyclopentylamino)-7H-pyrrolo[2,3-d]pyrimidin-7-yl)-3,4-dihydroxytetrahydrofuran-2-yl)methoxy)-1-hydroxypropan-2-yl)phosphonic acid] was at most 100 nM; that for `CC(CO)(P(=O)(O)O)S(=O)(=O)C[C@H]1O[C@@H](n2ncc3c(NC4CCCC4)nc(Cl)nc32)[C@H](O)[C@@H]1O` (stereo partly drawn) [Example 8, (2-((((2S,3S,4R,5R)-5-(6-Chloro-4-(cyclopentylamino)-1H-pyrazolo[3,4-d]pyrimidin-1-yl)-3,4-dihydroxytetrahydrofuran-2-yl)methyl)sulfonyl)-1-hydroxypropan-2-yl)phosphonic acid] was at most 100 nM; that for `O=P(O)(O)C(CO)OC[C@H]1O[C@@H](n2ccc3c(NC4CCCC4)nc(Cl)nc32)[C@H](O)[C@@H]1O` (stereo partly drawn) [Example 117, (1-(((2R,3S,4R,5R)-5-(2-chloro-4-(cyclopentylamino)-7H-pyrrolo[2,3-d]pyrimidin-7-yl)-3,4-dihydroxytetrahydrofuran-2-yl)methoxy)-2-hydroxyethyl)phosphonic acid] was at most 100 nM.
The value for `CCC(OC[C@H]1O[C@@H](n2ncc3c(NC4CCCC4)nc(Cl)nc32)[C@H](O)[C@@H]1O)P(=O)(O)O` (stereo partly drawn) [Example 14, (1-(((2R,3S,4R,5R)-5-(6-chloro-4-(cyclopentylamino)-1H-pyrazolo[3,4-d]pyrimidin-1-yl)-3,4-dihydroxytetrahydrofuran-2-yl)methoxy)propyl)phosphonic acid] was at most 100 nM; that for `COCC(C)(OC[C@H]1O[C@@H](n2nnc3c(N[C@@H]4CCc5ccccc54)nc(Cl)nc32)[C@H](O)[C@@H]1O)P(=O)(O)O` (stereo partly drawn) [Example 155, (2-(((2R,3S,4R,5R)-5-(5-chloro-7-(((R)-2,3-dihydro-1H-inden-1-yl)amino)-3H-[1,2,3]triazolo[4,5-d]pyrimidin-3-yl)-3,4-dihydroxytetrahydrofuran-2-yl)methoxy)-1-methoxypropan-2-yl)phosphonic acid] was at most 100 nM; that for `C[C@@](CO)(OC[C@H]1O[C@@H](n2ncc3c(NC4CCCC4)nc(Cl)nc32)[C@H](O)[C@@H]1O)P(=O)(O)O` [Example 63, ((R)-2-(((2R,3S,4R,5R)-5-(6-chloro-4-(cyclopentylamino)-1H-pyrazolo[3,4-d]pyrimidin-1-yl)-3,4-dihydroxytetrahydrofuran-2-yl)methoxy)-1-hydroxypropan-2-yl)phosphonic acid] was at most 100 nM.
Then `COC[C@@](C)(OC[C@H]1O[C@@H](n2ncc3c(NCC4CC4)nc(Cl)nc32)[C@H](O)[C@@H]1O)P(=O)(O)O` [Example 129, ((S)-2-(((2R,3S,4R,5R)-5-(6-chloro-4-((cyclopropylmethyl)amino)-1H-pyrazolo[3,4-d]pyrimidin-1-yl)-3,4-dihydroxytetrahydrofuran-2-yl)methoxy)-1-methoxypropan-2-yl)phosphonic acid], with at most 100 nM.
The compound `CC1(Nc2nc(Cl)nc3c2cnn3[C@@H]2O[C@H](CO[C@@](C)(CO)P(=O)(O)O)[C@@H](O)[C@H]2O)CCCC1` [Example 105, ((R)-2-(((2R,3S,4R,5R)-5-(6-chloro-4-((1-methylcyclopentyl)amino)-1H-pyrazolo[3,4-d]pyrimidin-1-yl)-3,4-dihydroxytetrahydrofuran-2-yl)methoxy)-1-hydroxypropan-2-yl)phosphonic acid] registered a half-inhibitory concentration (IC50) of at most 100 nM.
In turn, `O=P(O)(O)[C@@](CO)(Cc1nn[nH]n1)OC[C@H]1O[C@@H](n2ncc3c(NC4CCCC4)nc(CO)nc32)[C@H](O)[C@@H]1O` (racemic) [Example 218, rac-((R)-2-(((2R,3S,4R,5R)-5-(4-(cyclopentylamino)-6-(hydroxymethyl)-1H-pyrazolo[3,4-d]pyrimidin-1-yl)-3,4-dihydroxytetrahydrofuran-2-yl)methoxy)-1-hydroxy-3-(2H-tetrazol-5-yl)propan-2-yl)phosphonic acid] yielded an IC50 of at most 100 nM.
Then `O=P(O)(O)[C@@](CO)(Cc1nn[nH]n1)OC[C@H]1O[C@@H](n2ncc3c(NCC4CC4)nc(Cl)nc32)[C@H](O)[C@@H]1O` (racemic) [Example 197, rac-((R)-2-(((2R,3S,4R,5R)-5-(6-chloro-4-((cyclopropylmethyl)amino)-1H-pyrazolo[3,4-d]pyrimidin-1-yl)-3,4-dihydroxytetrahydrofuran-2-yl)methoxy)-1-hydroxy-3-(2H-tetrazol-5-yl)propan-2-yl)phosphonic acid], with at most 100 nM; and `COCC(OC[C@@H]1O[C@H](n2ncc3c(NC4CCCC4)nc(Cl)nc32)[C@@H](O)[C@H]1O)(C(=O)O)P(=O)(O)O` (mixture of isomers) [Example 220, rac-(R)-2-(((2S,3R,4S,5S)-5-(6-chloro-4-(cyclopentylamino)-1H-pyrazolo[3,4-d]pyrimidin-1-yl)-3,4-dihydroxytetrahydrofuran-2-yl)methoxy)-3-methoxy-2-phosphonopropanoic acid], with 100 to 1000 nM; and `CCOC(=O)C(OC[C@H]1O[C@@H](n2ncc3c(NC4CCCC4)nc(Cl)nc32)[C@H](O)[C@@H]1O)P(=O)(O)O` (stereo partly drawn) [Example 1, (1-(((2R,3S,4R,5R)-5-(6-Chloro-4-(cyclopentylamino)-1H-pyrazolo[3,4-d]pyrimidin-1-yl)-3,4-dihydroxytetrahydrofuran-2-yl)methoxy)-2-ethoxy-2-oxoethyl)phosphonic acid], with at most 100 nM.
`COC[C@@](C)(OC[C@H]1O[C@@H](n2nnc3c(NC4CCCC4)nc(Cl)nc32)[C@H](O)[C@@H]1O)P(=O)(O)O` [Example 109, ((S)-2-(((2R,3S,4R,5R)-5-(5-chloro-7-(cyclopentylamino)-3H-[1,2,3]triazolo[4,5-d]pyrimidin-3-yl)-3,4-dihydroxytetrahydrofuran-2-yl)methoxy)-1-methoxypropan-2-yl)phosphonic acid] gave an IC50 of at most 100 nM.
Then `O=P(O)(O)CS(=O)(=O)C[C@H]1O[C@@H](n2nnc3c(NCc4ccccc4Cl)cc(Cl)nc32)[C@H](O)[C@@H]1O` [Example 27, (((((2S,3S,4R,5R)-5-(5-chloro-7-((2-chlorobenzyl)amino)-3H-[1,2,3]triazolo[4,5-b]pyridin-3-yl)-3,4-dihydroxytetrahydrofuran-2-yl)methyl)sulfonyl)methyl)phosphonic acid], with at most 100 nM; and `N#CC(OC[C@H]1O[C@@H](n2ncc3c(NC4CCCC4)nc(Cl)nc32)[C@H](O)[C@@H]1O)P(=O)(O)O` (stereo partly drawn) [Example 2, ((((2R,3S,4R,5R)-5-(6-Chloro-4-(cyclopentylamino)-1H-pyrazolo[3,4-d]pyrimidin-1-yl)-3,4-dihydroxytetrahydrofuran-2-yl)methoxy)(cyano)methyl)phosphonic acid], with 100 to 1000 nM; and `O=P(O)(O)C(CO)(CO)OC[C@H]1O[C@@H](n2ncc3c(NCC4CC4)nc(Cl)nc32)[C@H](O)[C@@H]1O` [Example 132, (2-(((2R,3S,4R,5R)-5-(6-chloro-4-((cyclopropylmethyl)amino)-1H-pyrazolo[3,4-d]pyrimidin-1-yl)-3,4-dihydroxytetrahydrofuran-2-yl)methoxy)-1,3-dihydroxypropan-2-yl)phosphonic acid], with at most 100 nM.
The value for `O=P(O)(O)[C@](CO)(Cc1nn[nH]n1)OC[C@H]1O[C@@H](n2ncc3c(NC4CCCC4)nc(CO)nc32)[C@H](O)[C@@H]1O` (racemic) [Example 217, rac-((R)-2-(((2S,3R,4S,5S)-5-(4-(cyclopentylamino)-6-(hydroxymethyl)-1H-pyrazolo[3,4-d]pyrimidin-1-yl)-3,4-dihydroxytetrahydrofuran-2-yl)methoxy)-1-hydroxy-3-(2H-tetrazol-5-yl)propan-2-yl)phosphonic acid] was at most 100 nM.
